Where two headings read alike, the source gives them in different places.
How the values were obtained:
[1] = test system: replicating M. tuberculosis H37Rv; assay: microbe, parasite or virus in culture; format: cell-based; conditions: for Against Replicating Mtb, % @ 125: at 125 uM; for Against Replicating Mtb, % @ 62: at 62 uM
[2] = test system: carbon-starved M. tuberculosis H37Rv; assay: microbe, parasite or virus in culture; format: cell-based
TB = assay: MIC of control anti-tuberculosis antibiotics; format: cell-based, M. tuberculosis; conditions: Mycobacterium tuberculosis
[3] = test system: carbon-starved M. tuberculosis H37Rv; assay: Non-replicating IC90 determination by luciferase (carbon-starved cells); format: cell-based; conditions: FIG. 1C; read-out: IC90 for non-replicating starved cells by luciferase assay
[4] = test system: replicating M. tuberculosis H37Rv; format: cell-based; conditions: FIG. 1A; read-out: IC90 against replicating, logarithmically growing bacteria measured by OD600 (converted)
[5] = Mycobacterium tuberculosis, H37RV, read-out: Against carbon starving non-replicating Mtb IC90
[6] = Mycobacterium tuberculosis, H37RV, read-out: Against Replicating Mtb IC90

Clc1ccc(-c2nnc(SCc3cn(Cc4ccccc4)nn3)o2)cc1 [drawing 273]
Against Replicating Mtb, % @ 125 ([1]; […]): 98% @ 125 | Against carbon starving non-replicating Mtb, % @ 4 [2]: 99% @ 4

COc1cccc(-c2nnc(SCc3ccccn3)o2)c1 [drawing 274]
Against Replicating Mtb, % @ 62 ([1]; […]): 99% @ 62 | Against carbon starving non-replicating Mtb, % @ 16 ([2]; […], at 16 uM): 99% @ 16

[O-][S+](Cc1cn(Cc2ccccc2)nn1)c1nnc(-c2ccc(Cl)cc2)o1 (stereo not drawn) [drawing 272]
Against Replicating Mtb, % @ 62 ([1]; […]): 100% @ 62 | Against carbon starving non-replicating Mtb, % @ 31 ([2]; […], at 31 uM): 100% @ 31

Brc1cccc(-c2nnc(SCc3ccccn3)o2)c1 [drawing 271]
Against Replicating Mtb, % @ 62 ([1]; […]): 96% @ 62 | IC90 [2, 5]: < 8 µM

NNC(=O)c1ccncc1 [INH, isoniazid]
MIC (TB): 0.1 µg/mL

Clc1ccc(-c2nnc(SCc3cn(-c4ccccc4)nn3)o2)cc1
IC90 [3]: > 62 µM | IC90 ([1]; FIG. 1B, read-out: IC90 against replicating, logarithmically growing bacteria measured by CFU/mL (converted)): > 62 µM | IC90 ([2]; FIG. 1D, read-out: IC90 against non-replicating, starved cells by CFU/mL): 1 µM | IC90 [4]: > 62 µM

COC(=O)CCCOc1ccc(CSc2nnc(-c3ccc(Cl)cc3)o2)nc1 [drawing 276]
IC90 [1, 6]: 31 µM | Against carbon starving non-replicating Mtb, % @ 8 [2]: 99% @ 8

CO[C@H]1/C=C/O[C@@]2(C)Oc3c(C)c(O)c4c(O)c(c(/C=N/N5CCN(C)CC5)c(O)c4c3C2=O)NC(=O)/C(C)=C\C=C\[C@H](C)[C@H](O)[C@@H](C)[C@@H](O)[C@@H](C)[C@H](OC(C)=O)[C@@H]1C [rifampin]
MIC (TB): 0.01 µg/mL

[N-]=[N+]=NCCOCCNC(=O)CCCOc1ccc(CSc2nnc(-c3ccc(Cl)cc3)o2)nc1 [drawing 277]
Against carbon starving non-replicating Mtb, % @ 8 [2]: 98% @ 8

Fc1cccc(-c2nnc(SCc3ccccn3)o2)c1 [drawing 270]
IC90 [1, 6]: 31 µM | IC90 [2, 5]: < 8 µM

COCC[S+]([O-])c1nnc(-c2ccc(Cl)cc2)o1 (stereo not drawn) [drawing 265]
IC90 [2, 5]: 10 µM

c1ccc(-c2nnc(SCc3ccccn3)o2)cc1 [drawing 261]
Against Replicating Mtb, % @ 125 ([1]; […]): 99% @ 125 | IC90 [2, 5]: 4 µM

[N-]=[N+]=NCCOCCNC(=O)CCCOc1ccc(C[S+]([O-])c2nnc(-c3ccc(Cl)cc3)o2)nc1 (stereo not drawn) [drawing 278]
Against carbon starving non-replicating Mtb, % @ 8 [2]: 97% @ 8

COCCSc1nnc(-c2ccccc2)o1 [drawing 260]
IC90 [2, 5]: 4 µM

COc1ccc(CSc2nnc(-c3ccc(Cl)cc3)o2)nc1 [drawing 275]
Against Replicating Mtb, % @ 16 (7 d) ([1]; […], at 16 uM, 7 d): 99.5% @ 16 (7 d) | Against carbon starving non-replicating Mtb, % @ 4 [2]: 99% @ 4

Fc1ccc(-c2nnc(SCc3ccccn3)o2)cc1 [drawing 269]
Against Replicating Mtb, % @ 16 ([1]; […], at 16 uM): 98.5% @ 16 | Against carbon starving non-replicating Mtb, % @ 4 [2]: 99% @ 4

[O-][S+](Cc1ccccc1)c1nnc(-c2ccccc2)o1 (stereo not drawn) [drawing 267]
Against Replicating Mtb, % @ 31 ([1]; […], at 31 uM): 100% @ 31 | IC90 [2, 5]: 4 µM

— US10301294B2, “Compounds for the treatment of tuberculosis” (priority 2013, dated 2019)
